Values quoted from earlier work in patent US20210113536A1, “METHODS AND COMPOSITIONS FOR DETECTING AND TREATING VENOUS THROMBOEMBOLISM” (United States Government As Represented By The Department …, priority 2019, published 2021).

Tested on: asymptomatic participants
Details: 20 mg of rosuvastatin, JUPITER trial

For CC(C)c1nc(N(C)S(C)(=O)=O)nc(-c2ccc(F)cc2)c1/C=C/[C@@H](O)C[C@@H](O)CC(=O)O [rosuvastatin], the “occurrence of symptomatic VTE” value is listed as “reduced occurrence of symptomatic VTE”.
